Measured values taken from PMC9095466 (Nature, 2022).
Like-named read-outs stand apart in the source and are kept apart here.

What was measured:
Test in all cases: microbe, parasite or virus in culture
Assay type in all cases: cell-based
[1] = system: SARS-CoV-2 B.1.1.7 (Alpha); settings: Calu-3 cells, n = 4
SARS-CoV-2 P.1 (Gamma) = settings: Calu-3 cells, n = 4
[2] = system: SARS-CoV-2 B.1.351 (Beta); settings: Calu-3 cells, n = 4
[3] = system: SARS-CoV-2 B.1.617.2 (Delta); settings: Calu-3 cells, n = 4
[4] = system: SARS-CoV-2 lineage B strain (VIDO); settings: Severe acute respiratory syndrome coronavirus 2, 72 h; Calu-3 cells, Fig. 3d, n = 4; read-out: EC50, dsRNA staining, Variant B (VIDO-01)

## CS(=O)(=O)NC(CCC(N)=O)C(=O)NC(Cc1ccccc1)C(=O)NC(CCCNC(=N)N)C(=O)c1nc2ccccc2s1 (stereo not drawn) [Compound N-0385, Ms-QFR-kbt]
[1]; Severe acute respiratory syndrome coronavirus 2, 72 h, Fig. 3d, read-out: EC50, dsRNA staining, Variant B.1.1.7 (Alpha)
  EC50: 2.6 nM
[1]; Severe acute respiratory syndrome coronavirus 2, Fig. 3c, read-out: EC50, N staining, Variant B.1.1.7 (Alpha)
  EC50: 2.1 nM
SARS-CoV-2 P.1 (Gamma); Severe acute respiratory syndrome coronavirus 2, 72 h, Fig. 3d, read-out: EC50, dsRNA staining, Variant P.1 (Gamma)
  EC50: 5.4 nM
SARS-CoV-2 P.1 (Gamma); Severe acute respiratory syndrome coronavirus 2, Fig. 3c, read-out: EC50, N staining, Variant P.1 (Gamma)
  EC50: 6.5 nM
[2]; Severe acute respiratory syndrome coronavirus 2, 72 h, Fig. 3d, read-out: EC50, dsRNA staining, Variant B.1.351 (Beta)
  EC50: 22 nM
[2]; Severe acute respiratory syndrome coronavirus 2, Fig. 3c, read-out: EC50, N staining, Variant B.1.351 (Beta)
  EC50: 12.8 nM
[3]; Severe acute respiratory syndrome coronavirus 2, 72 h, Fig. 3d, read-out: EC50, dsRNA staining, Variant B.1.617.2 (Delta)
  EC50: 26.5 nM
[3]; Severe acute respiratory syndrome coronavirus 2, Fig. 3c, read-out: EC50, N staining, Variant B.1.617.2 (Delta)
  EC50: 13.9 nM
[4]
  EC50: 14.3 nM
